Laboratory results: patent publication US9107851B2, “Solventless mixing process for coating pharmaceutical ingredients” (New Jersey Institute of Technology, priority 2012, dated 2015)

Assay: USP dissolution test (Apparatus II paddles, pH 7.2 phosphate buffer with SDS, 37° C.)
Format: physicochemical
Details: for Time to dissolve: uncoated; for Initial dissolution rate (—): grinding pressure 0
Description: The coated API core particles have the taste of the API masked to allow easy swallowing or even chewing by patients. The API is still released from the coated API core particles in relatively short time. A USP Dissolution Test may be used to assess the release of API from the coated API core particles. The dissolution test employs a media of 7.2 pH phosphate buffer solution with 0.4 g/L sodium dodecyl sulfate (SDS, used to ensure wetting of the powders) at 37° C. and is carried out in USP Apparatus II (paddles) rotating at 50 RPM. The percentage of active pharmaceutical ingredient that is dissolved is measured over time. The coated API core particles can release the API in 30 minutes or less as measured in the USP Dissolution test, or in 20 minutes or less as measured in the USP dissolution test.

- Time to dissolve (Example 23: 45 μm-63 μm): 10 s
- Time to dissolve (Example 23: 90 μm-125 μm): less than 20 seconds
- Time to dissolve (Example 23: 150 μm-250 μm): less than 60 seconds
- Time to dissolve (Example 23: 425 μm-500 μm): less than 60 seconds
- Initial dissolution rate (—) (ascorbic acid initial d50 93 μm): 9.16
- Initial dissolution rate (—) (ascorbic acid initial d50 192 μm): 7.764
- Initial dissolution rate (—) (ascorbic acid initial d50 341 μm): 4.053
SMILES: O=C1O[C@H]([C@@H](O)CO)C(O)=C1O [ascorbic acid]
